PMC10604444, “Extra-Synaptic GABAA Receptor Potentiation and Neurosteroid-Induced Learning Deficits Are Inhibited by GR3027, a GABAA Modulating Steroid Antagonist” (Biomolecules, 2023)
Like-named read-outs stand apart in the source and are kept apart here.

Experiment: Pharmacokinetic analysis of GR3027 in plasma after i.v. and p.o. administration
Assay type: in vivo, rat
Conditions: for AUC: male Sprague-Dawley rats, 0-24 h; for Cmax / Tmax / half-life: rat plasma; for half-life: read-out: t½; for k el: in vivo
Procedure: Ten male Sprague-Dawley rats were used to assess PK with GR3027 given orally and intravenously, respectively. Animals were kept at room temperature with artificial light under a 12/12 h light/dark schedule, and with food and water ad libitum. Animals were given 2 mg/kg i.v. in 10% 2-hydroxypropyl-beta-cyclodextrin or 10 mg/kg orally. Approximately 50 µL blood samples were taken at 15 min, 30 min, 1 h, 2 h, 4 h, 8 h, 12 h, and 24 h after oral dosing, and 5 min, 15 min, 30 min, 1 h, 2 h, 4 h, 8 h, 12 h, and 24 h after intravenous dosing, and plasma was frozen. The analysis method has been described earlier and is here briefly described. All the samples were analyzed in triplicate by Admescope Ltd., Oulu, Finland, using an LC/MS/MS method developed for the purpose, using a Waters ACQUITY UPLC_Waters XEVO-TQS triple-quadrupole mass spectrometer.
Blood/plasma samples were obtained at several time points after the i.v. and p.o. administration of GR3027 to rats. The maximum plasma concentration (Cmax) and the time to Cmax (Tmax) were derived directly from the plasma concentration data. The results are shown in Table 4 as the area under the concentration–time curve (AUC, 0–24 h), elimination half-life in plasma (t1/2), elimination rate constant (Ke), total body clearance (CL), and mean residence time (MRT), i.e., how long GR3027 remained in the body. The tentative oral bioavailability (F) was calculated by dividing the dose-normalized AUC after p.o. administration by the dose-normalized AUC after i.v. administration, i.e., F = [(AUC(p.o.)/Dose(p.o.))///(AUC(i.v)/Dose (i.v.))], and reported as percentages (%).

[1] = male, Sprague-Dawley, iv, 2 mg/kg i.v., mean
[2] = male, Sprague-Dawley, po, 10 mg/kg p.o., mean

Structure (SMILES): C#C[C@]1(O)CC[C@@]2(C)[C@@H](CC[C@@H]3[C@@H]2CC[C@]2(C)/C(=N/O)CC[C@@H]32)C1 [GR3027, 3α-ethynyl-3β-hydroxyl-5α-androstan-17-oxime]
- AUC (2 mg/kg i.v., plasma, mean): 2205586 min ∗ ng/mL
- AUC (10 mg/kg p.o., plasma, mean): 113568 min ∗ ng/mL
- Cmax [1]: 74500 ng/mL
- Tmax [1]: 0.0833 h
- half-life [1]: 11.3 h
- MRT (male, Sprague-Dawley, plasma, iv, 2 mg/kg i.v., rat, mean): 0.277 h
- clearance (male, Sprague-Dawley, plasma, iv, 2 mg/kg i.v., rat, mean, read-out: Cl (total body clearance)): 1.09 mL/min/kg
- bioavailability (male, Sprague-Dawley, plasma, oral, 10 mg/kg p.o. vs 2 mg/kg i.v., dose-normalized AUC, rat, read-out: F (tentative oral bioavailability)): 1%
- MRT (male, Sprague-Dawley, plasma, po, 10 mg/kg p.o., rat, mean): 4.73 h
- Cmax [2]: 504 ng/mL
- Tmax [2]: 0.567 h
- half-life [2]: 5.17 h
- k el (male, Sprague-Dawley, rat, iv, 2 mg/kg): 2e-05 s⁻¹
- k el (male, Sprague-Dawley, rat, po, 10 mg/kg): 4.17e-05 s⁻¹
